Assay: Patient incidence of adverse events (CTCAE version 4.0)
Type: in vivo
Settings: 240-mg dose expansion
Description: Each patient was monitored for 21 days for the occurrence of dose-limiting toxicities (DLTs), defined as febrile neutropenia, neutropenic infection, grade 4 neutropenia lasting >7 days, grade ≥ 3 thrombocytopenia lasting >7 days (solid tumors only), grade 3 thrombocytopenia with grade ≥ 2 bleeding (solid tumors only), grade 3 or 4 thrombocytopenia with grade > 1 bleeding (multiple myeloma only), grade 4 thrombocytopenia (solid tumors only), or grade 4 thrombocytopenia lasting >14 days (multiple myeloma only), or as grade ≥ 3 nausea, vomiting, or diarrhea after support; grade 3 fatigue lasting >7 days; any other grade ≥ 3 adverse event (AE); grade ≥ 3 kidney injury (multiple myeloma only), or treatment-related AEs not returning to grade ≤ 1 (solid tumors only) per Common Terminology Criteria for Adverse Events (CTCAE), version 4.0. The MTD was defined as the maximum dose, at which the probability of a DLT was ≤25% in Part 1A and ≤ 33% in Parts 1B and 1C. Treatment continued until disease progression, intolerable toxicity, or withdrawal of consent.
AEs were recorded for all enrolled patients.

CC(C)[C@@H](CS(=O)(=O)C(C)C)N1C(=O)[C@@](C)(CC(=O)O)C[C@H](c2cccc(Cl)c2)[C@H]1c1ccc(Cl)cc1 [AMG 232]
4 (50) n (%): Patients with any treatment-related AE, Grade 3 (ER + PR+ Breast (n = 8))
5 (63) n (%): Treatment-related AE: Decrease appetite (ER + PR+ Breast (n = 8))
2 (20) n (%): Treatment-related AE: Vomiting (DDLPS (n = 10)) | Treatment-related AE: Neutropenia (GBM (n = 10)) | Treatment-related AE: Thrombocytopenia (GBM (n = 10)) | Patients with any serious, treatment-related AE (Multiple Myeloma (n = 10)) | Serious, treatment-related AE: Vomiting (grade 3) (Multiple Myeloma (n = 10)) | Treatment-related AE: Dysgeusia (Multiple Myeloma (n = 10)) | Treatment-related AE: Fatigue (Multiple Myeloma (n = 10))
6 (75) n (%): Treatment-related AE: Nausea (ER + PR+ Breast (n = 8)) | Treatment-related AE: Vomiting (ER + PR+ Breast (n = 8))
2 (25) n (%): Patients with any serious, treatment-related AE (ER + PR+ Breast (n = 8)) | Treatment-related AE: Dysgeusia (ER + PR+ Breast (n = 8))
1 (13) n (%): Serious, treatment-related AE: Diarrhea (grade 3) (ER + PR+ Breast (n = 8)) | Serious, treatment-related AE: Nausea (grade 3) (ER + PR+ Breast (n = 8)) | Serious, treatment-related AE: Vomiting (grade 3) (ER + PR+ Breast (n = 8)) | Treatment-related AE: Asthenia (ER + PR+ Breast (n = 8))
10 (100) n (%): Patients with any treatment-emergent AE (GBM (n = 10)) | Patients with any treatment-related AE (GBM (n = 10)) | Patients with any treatment-emergent AE (Multiple Myeloma (n = 10)) | Patients with any treatment-related AE (Multiple Myeloma (n = 10))
4 (100) n (%): Patients with any treatment-emergent AE (ER + PR–Breast (n = 4)) | Patients with any treatment-related AE (ER + PR–Breast (n = 4)) | Treatment-related AE: Diarrhea (ER + PR–Breast (n = 4))
3 (38) n (%): Patients with any treatment-emergent serious AE (ER + PR+ Breast (n = 8)) | Treatment-related AE: Fatigue (ER + PR+ Breast (n = 8))
9 (90) n (%): Patients with any treatment-emergent AE (DDLPS (n = 10)) | Patients with any treatment-related AE (DDLPS (n = 10))
7 (70) n (%): Treatment-related AE: Fatigue (DDLPS (n = 10)) | Patients with any treatment-emergent serious AE (GBM (n = 10)) | Treatment-related AE: Diarrhea (Multiple Myeloma (n = 10))
13 (19%) n (%): Patients with AEs resulting in treatment discontinuation
7 (88) n (%): Treatment-related AE: Diarrhea (ER + PR+ Breast (n = 8))
4 (25) n (%): Patients with any treatment-related AE, Grade 3 (Other Solid (n = 16))
1 (25) n (%): Patients with any treatment-emergent serious AE (ER + PR–Breast (n = 4)) | Patients with any treatment-related AE, Grade 3 (ER + PR–Breast (n = 4)) | Treatment-related AE: Anemia (ER + PR–Breast (n = 4)) | Treatment-related AE: Asthenia (ER + PR–Breast (n = 4))
4 (40) n (%): Patients with any treatment-emergent serious AE (DDLPS (n = 10)) | Treatment-related AE: Decrease appetite (DDLPS (n = 10)) | Patients with any treatment-related AE, Grade 3 (GBM (n = 10)) | Treatment-related AE: Nausea (GBM (n = 10)) | Patients with any treatment-emergent serious AE (Multiple Myeloma (n = 10)) | Treatment-related AE: Asthenia (Multiple Myeloma (n = 10)) | Treatment-related AE: Decrease appetite (Multiple Myeloma (n = 10)) | Treatment-related AE: Nausea (Multiple Myeloma (n = 10)) | Treatment-related AE: Vomiting (Multiple Myeloma (n = 10))
1 (10) n (%): Treatment-related AE: Asthenia (DDLPS (n = 10)) | Treatment-related AE: Dysgeusia (DDLPS (n = 10)) | Treatment-related AE: Thrombocytopenia (DDLPS (n = 10)) | Patients with any serious, treatment-related AE (GBM (n = 10)) | Serious, treatment-related AE: Hyperamylasemia (grade 3) (GBM (n = 10)) | Serious, treatment-related AE: Hyperlipasemia (grade 3) (GBM (n = 10)) | Treatment-related AE: Decrease appetite (GBM (n = 10)) | Treatment-related AE: Dysgeusia (GBM (n = 10)) | Treatment-related AE: Anemia (Multiple Myeloma (n = 10))
2 (13) n (%): Patients with any treatment-related AE, Grade 4 (Other Solid (n = 16))
8 (80) n (%): Treatment-related AE: Nausea (DDLPS (n = 10))
6 (60) n (%): Treatment-related AE: Diarrhea (DDLPS (n = 10)) | Treatment-related AE: Fatigue (GBM (n = 10)) | Patients with any treatment-related AE, Grade 3 (Multiple Myeloma (n = 10))
2 n: AE resulting in treatment discontinuation: fatigue
16 (100) n (%): Patients with any treatment-emergent AE (Other Solid (n = 16))
0 n (%): Patients with any serious, treatment-related AE (DDLPS (n = 10)) | Patients with any treatment-related AE, Grade 3 (DDLPS (n = 10)) | Patients with any treatment-related AE, Grade 4 (DDLPS (n = 10)) | Patients with any treatment-related AE, Grade 5 (DDLPS (n = 10)) | Serious, treatment-related AE: Dehydration (grade 3) (DDLPS (n = 10)) | Serious, treatment-related AE: Diarrhea (grade 3) (DDLPS (n = 10)) | Serious, treatment-related AE: Hyperamylasemia (grade 3) (DDLPS (n = 10)) | Serious, treatment-related AE: Hyperlipasemia (grade 3) (DDLPS (n = 10)) | Serious, treatment-related AE: Nausea (grade 3) (DDLPS (n = 10)) | Serious, treatment-related AE: Pulmonary embolism (grade 3) (DDLPS (n = 10)) | Serious, treatment-related AE: Vomiting (grade 3) (DDLPS (n = 10)) | Treatment-related AE: Anemia (DDLPS (n = 10)) | Treatment-related AE: Neutropenia (DDLPS (n = 10)) | Patients with any treatment-related AE, Grade 4 (ER + PR+ Breast (n = 8)) | Patients with any treatment-related AE, Grade 5 (ER + PR+ Breast (n = 8)) | Serious, treatment-related AE: Dehydration (grade 3) (ER + PR+ Breast (n = 8)) | Serious, treatment-related AE: Hyperamylasemia (grade 3) (ER + PR+ Breast (n = 8)) | Serious, treatment-related AE: Hyperlipasemia (grade 3) (ER + PR+ Breast (n = 8)) | Serious, treatment-related AE: Pulmonary embolism (grade 3) (ER + PR+ Breast (n = 8)) | Treatment-related AE: Anemia (ER + PR+ Breast (n = 8)) | Treatment-related AE: Neutropenia (ER + PR+ Breast (n = 8)) | Treatment-related AE: Thrombocytopenia (ER + PR+ Breast (n = 8)) | Patients with any serious, treatment-related AE (ER + PR–Breast (n = 4)) | Patients with any treatment-related AE, Grade 4 (ER + PR–Breast (n = 4)) | Patients with any treatment-related AE, Grade 5 (ER + PR–Breast (n = 4)) | Serious, treatment-related AE: Dehydration (grade 3) (ER + PR–Breast (n = 4)) | Serious, treatment-related AE: Diarrhea (grade 3) (ER + PR–Breast (n = 4)) | Serious, treatment-related AE: Hyperamylasemia (grade 3) (ER + PR–Breast (n = 4)) | Serious, treatment-related AE: Hyperlipasemia (grade 3) (ER + PR–Breast (n = 4)) | Serious, treatment-related AE: Nausea (grade 3) (ER + PR–Breast (n = 4)) | Serious, treatment-related AE: Pulmonary embolism (grade 3) (ER + PR–Breast (n = 4)) | Serious, treatment-related AE: Vomiting (grade 3) (ER + PR–Breast (n = 4)) | Treatment-related AE: Dysgeusia (ER + PR–Breast (n = 4)) | Treatment-related AE: Fatigue (ER + PR–Breast (n = 4)) | Treatment-related AE: Neutropenia (ER + PR–Breast (n = 4)) | Treatment-related AE: Thrombocytopenia (ER + PR–Breast (n = 4)) | Patients with any treatment-related AE, Grade 4 (GBM (n = 10)) | Patients with any treatment-related AE, Grade 5 (GBM (n = 10)) | Serious, treatment-related AE: Dehydration (grade 3) (GBM (n = 10)) | Serious, treatment-related AE: Diarrhea (grade 3) (GBM (n = 10)) | Serious, treatment-related AE: Nausea (grade 3) (GBM (n = 10)) | Serious, treatment-related AE: Pulmonary embolism (grade 3) (GBM (n = 10)) | Serious, treatment-related AE: Vomiting (grade 3) (GBM (n = 10)) | Treatment-related AE: Anemia (GBM (n = 10)) | Treatment-related AE: Asthenia (GBM (n = 10)) | Patients with any treatment-related AE, Grade 5 (Multiple Myeloma (n = 10)) | Serious, treatment-related AE: Dehydration (grade 3) (Multiple Myeloma (n = 10)) | Serious, treatment-related AE: Diarrhea (grade 3) (Multiple Myeloma (n = 10)) | Serious, treatment-related AE: Hyperamylasemia (grade 3) (Multiple Myeloma (n = 10)) | Serious, treatment-related AE: Hyperlipasemia (grade 3) (Multiple Myeloma (n = 10)) | Serious, treatment-related AE: Nausea (grade 3) (Multiple Myeloma (n = 10)) | Serious, treatment-related AE: Pulmonary embolism (grade 3) (Multiple Myeloma (n = 10)) | Patients with any serious, treatment-related AE (Other Solid (n = 16)) | Patients with any treatment-related AE, Grade 5 (Other Solid (n = 16)) | Serious, treatment-related AE: Dehydration (grade 3) (Other Solid (n = 16)) | Serious, treatment-related AE: Diarrhea (grade 3) (Other Solid (n = 16)) | Serious, treatment-related AE: Hyperamylasemia (grade 3) (Other Solid (n = 16))
4 n: AE resulting in treatment discontinuation: vomiting
3 (75) n (%): Treatment-related AE: Decrease appetite (ER + PR–Breast (n = 4)) | Treatment-related AE: Nausea (ER + PR–Breast (n = 4))
8 (100) n (%): Patients with any treatment-emergent AE (ER + PR+ Breast (n = 8)) | Patients with any treatment-related AE (ER + PR+ Breast (n = 8))
5 (50) n (%): Treatment-related AE: Diarrhea (GBM (n = 10))
5 (31) n (%): Patients with any treatment-emergent serious AE (Other Solid (n = 16))
14 (88) n (%): Patients with any treatment-related AE (Other Solid (n = 16))
3 (30) n (%): Treatment-related AE: Vomiting (GBM (n = 10)) | Patients with any treatment-related AE, Grade 4 (Multiple Myeloma (n = 10)) | Treatment-related AE: Neutropenia (Multiple Myeloma (n = 10)) | Treatment-related AE: Thrombocytopenia (Multiple Myeloma (n = 10))
2 (50) n (%): Treatment-related AE: Vomiting (ER + PR–Breast (n = 4))

From PMC7211202 (Investigational New Drugs, 2019)
